Reference: ChEMBL document CHEMBL1201862, “PubChem BioAssay data set” (2004)
Calls of active or inactive are those of the source.

Experiments:
[1] = loss of viability in HepG2 cells – cell-based, CellTiter-Glo, cherry-picked, cytotoxicity control for Shn3 inhibitor project, dose response (AID 624134); type: functional
Paired box protein Pax-8 = Paired box protein Pax-8 (Homo sapiens, UniProt Q06710); assay: PAX8 transcriptional activity inhibition in RMG-I – RMG-I cells, luciferase, cherry-pick, dose response (AID 687027); type: functional, cell-based;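 also: luciferase reporter driven by Pax8 target thyroperoxidase promoter measured by SteadyGlo luminescence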
[2] = general cell-killing toxicity readout – plate reader, dry powder samples, cytotoxicity control for PAX8 inhibitor project, dose response (AID 743021); type: functional, cell-based
Beta-galactosidase = Beta-galactosidase (Escherichia coli, UniProt Q8VNN2); assay: detection-enzyme interference by beta-gal modulators – biochemical, E. coli enzyme, set 3, artefact control for CCR6 antagonist project, dose response (AID 504712); type: functional
Sequence of Beta-galactosidase (Q8VNN2 whole entry): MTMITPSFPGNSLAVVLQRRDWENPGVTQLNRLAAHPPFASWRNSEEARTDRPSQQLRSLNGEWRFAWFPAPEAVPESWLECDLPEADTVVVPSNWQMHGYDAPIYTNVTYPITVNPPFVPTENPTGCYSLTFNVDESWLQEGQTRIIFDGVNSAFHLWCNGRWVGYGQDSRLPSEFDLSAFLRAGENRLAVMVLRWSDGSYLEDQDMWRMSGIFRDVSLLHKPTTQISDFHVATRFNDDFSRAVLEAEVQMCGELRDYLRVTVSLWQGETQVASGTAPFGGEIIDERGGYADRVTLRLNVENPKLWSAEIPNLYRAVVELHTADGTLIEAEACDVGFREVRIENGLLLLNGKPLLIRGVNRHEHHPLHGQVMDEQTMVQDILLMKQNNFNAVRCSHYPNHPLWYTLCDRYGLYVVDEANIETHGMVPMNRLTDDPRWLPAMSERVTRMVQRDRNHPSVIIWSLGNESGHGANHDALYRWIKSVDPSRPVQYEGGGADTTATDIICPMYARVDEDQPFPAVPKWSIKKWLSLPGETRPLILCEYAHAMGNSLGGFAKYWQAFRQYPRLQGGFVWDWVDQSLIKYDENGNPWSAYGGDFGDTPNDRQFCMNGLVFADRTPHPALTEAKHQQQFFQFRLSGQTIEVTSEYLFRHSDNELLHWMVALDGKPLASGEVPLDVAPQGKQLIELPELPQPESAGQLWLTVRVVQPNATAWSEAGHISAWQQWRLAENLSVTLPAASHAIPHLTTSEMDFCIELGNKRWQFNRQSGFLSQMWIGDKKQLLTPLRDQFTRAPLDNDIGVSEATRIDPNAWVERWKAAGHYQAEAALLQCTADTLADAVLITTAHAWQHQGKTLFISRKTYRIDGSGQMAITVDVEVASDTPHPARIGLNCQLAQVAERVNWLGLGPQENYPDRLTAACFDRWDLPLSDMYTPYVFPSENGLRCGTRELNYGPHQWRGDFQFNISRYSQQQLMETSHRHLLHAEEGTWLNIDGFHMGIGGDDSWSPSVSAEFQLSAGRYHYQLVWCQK

[3] = reduction of Shn3 3'UTR-driven luciferase in osteoblasts – cell-based, Clone20 osteoblasts, firefly luciferase, cherry-picked, dose response (AID 624132); type: functional;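 also: firefly luciferase luminescence from reporter carrying the Shn3 3'UTR in osteoblasts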
[4] = target: T1, Dual specificity protein phosphatase 6 (Rattus norvegicus, UniProt Q64346); type: functional;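 also: confirmatory in vitro dose-response testing of MKP-3 inhibition; recombinant His-tagged MKP-3 made in E. coli BL21 with OMFP substrate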
T1 sequence (Q64346 whole entry): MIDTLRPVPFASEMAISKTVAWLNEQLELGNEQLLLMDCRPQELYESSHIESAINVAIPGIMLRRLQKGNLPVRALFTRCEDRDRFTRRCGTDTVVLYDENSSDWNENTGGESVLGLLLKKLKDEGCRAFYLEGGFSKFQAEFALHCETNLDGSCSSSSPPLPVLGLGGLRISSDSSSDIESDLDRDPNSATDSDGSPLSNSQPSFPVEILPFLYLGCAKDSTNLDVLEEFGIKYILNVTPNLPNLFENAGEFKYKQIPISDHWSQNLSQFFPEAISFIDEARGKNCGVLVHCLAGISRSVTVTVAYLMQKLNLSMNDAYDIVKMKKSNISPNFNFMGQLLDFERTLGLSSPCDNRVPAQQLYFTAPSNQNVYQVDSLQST

[5] = target: Tyrosine-protein phosphatase non-receptor type 12 (Homo sapiens, UniProt Q05209); assay: SAR Selectivity Analysis of small molecule inhibitors of PEST using pCAP in a fluorescence assay. [Related pubchem assays (depositor defined):AID1779, AID1784, AID2135]; type: functional
Sequence of Tyrosine-protein phosphatase non-receptor type 12 (Q05209 whole entry): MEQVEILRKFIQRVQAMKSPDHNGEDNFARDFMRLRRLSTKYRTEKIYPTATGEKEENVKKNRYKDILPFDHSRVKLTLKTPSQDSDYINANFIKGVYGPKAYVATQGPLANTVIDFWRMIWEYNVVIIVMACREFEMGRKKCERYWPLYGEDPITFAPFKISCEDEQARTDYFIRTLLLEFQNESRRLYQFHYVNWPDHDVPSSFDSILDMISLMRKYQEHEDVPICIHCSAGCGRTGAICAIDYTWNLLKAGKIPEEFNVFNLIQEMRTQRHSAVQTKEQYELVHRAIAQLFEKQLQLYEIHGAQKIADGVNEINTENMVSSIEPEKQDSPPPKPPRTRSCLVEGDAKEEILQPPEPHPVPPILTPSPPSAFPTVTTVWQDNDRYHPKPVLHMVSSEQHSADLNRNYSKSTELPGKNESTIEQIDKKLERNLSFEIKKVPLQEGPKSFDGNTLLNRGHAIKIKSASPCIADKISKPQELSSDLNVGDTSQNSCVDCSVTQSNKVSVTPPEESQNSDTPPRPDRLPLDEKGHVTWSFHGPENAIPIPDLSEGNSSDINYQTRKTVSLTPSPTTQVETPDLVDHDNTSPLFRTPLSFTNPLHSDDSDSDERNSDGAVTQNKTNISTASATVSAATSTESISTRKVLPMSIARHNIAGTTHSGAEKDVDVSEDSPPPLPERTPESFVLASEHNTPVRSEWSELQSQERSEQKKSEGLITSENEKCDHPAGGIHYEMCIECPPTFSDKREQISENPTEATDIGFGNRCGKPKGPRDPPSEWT

[6] = target: T2, Tyrosine-protein phosphatase non-receptor type 22 (Homo sapiens, UniProt Q9Y2R2); assay: inhibition of lymphoid tyrosine phosphatase LYP – biochemical, pCAP fluorogenic substrate, fluorescence, set 3, SAR follow-up (AID 449727); type: functional
T2 sequence (Q9Y2R2 whole entry): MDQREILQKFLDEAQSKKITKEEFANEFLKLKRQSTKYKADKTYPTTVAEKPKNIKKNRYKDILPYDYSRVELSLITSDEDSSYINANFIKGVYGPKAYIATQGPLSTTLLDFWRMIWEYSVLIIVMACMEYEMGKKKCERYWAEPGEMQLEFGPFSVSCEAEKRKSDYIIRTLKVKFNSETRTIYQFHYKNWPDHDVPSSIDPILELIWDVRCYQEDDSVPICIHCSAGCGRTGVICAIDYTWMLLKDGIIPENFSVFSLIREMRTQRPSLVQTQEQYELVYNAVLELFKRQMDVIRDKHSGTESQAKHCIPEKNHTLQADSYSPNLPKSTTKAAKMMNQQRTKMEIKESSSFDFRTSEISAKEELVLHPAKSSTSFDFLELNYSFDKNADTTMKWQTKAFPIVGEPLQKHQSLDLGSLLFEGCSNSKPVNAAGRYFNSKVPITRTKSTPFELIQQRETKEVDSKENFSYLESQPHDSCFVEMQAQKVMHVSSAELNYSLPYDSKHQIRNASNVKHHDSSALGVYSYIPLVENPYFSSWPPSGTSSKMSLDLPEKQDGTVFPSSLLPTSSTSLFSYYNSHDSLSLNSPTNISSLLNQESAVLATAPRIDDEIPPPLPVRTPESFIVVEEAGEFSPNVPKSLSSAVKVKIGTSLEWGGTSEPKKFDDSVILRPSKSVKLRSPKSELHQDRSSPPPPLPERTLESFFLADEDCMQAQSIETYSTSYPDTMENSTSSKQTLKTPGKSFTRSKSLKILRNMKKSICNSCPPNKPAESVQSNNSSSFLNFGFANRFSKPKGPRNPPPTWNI

[7] = target: T3, Dual specificity protein phosphatase 3 (Homo sapiens, UniProt P51452); assay: SAR VHR1 absorbance Assay for In Vitro dose response studies. [Related pubchem assays (depositor defined):AID1654, AID1661, AID1878, AID1992, AID2004]
T3 sequence (P51452 whole entry): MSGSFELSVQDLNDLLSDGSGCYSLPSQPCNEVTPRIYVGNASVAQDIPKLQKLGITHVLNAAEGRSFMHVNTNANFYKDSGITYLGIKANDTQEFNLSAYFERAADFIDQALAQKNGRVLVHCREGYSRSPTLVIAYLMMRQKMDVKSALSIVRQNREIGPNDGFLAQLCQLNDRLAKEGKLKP

[8] = target: T4, Tyrosine-protein phosphatase non-receptor type 7 (Homo sapiens, UniProt P35236); assay: inhibition of hematopoietic tyrosine phosphatase HePTP – biochemical, set 2, SAR follow-up (AID 449736); type: functional
T4 sequence (P35236 whole entry): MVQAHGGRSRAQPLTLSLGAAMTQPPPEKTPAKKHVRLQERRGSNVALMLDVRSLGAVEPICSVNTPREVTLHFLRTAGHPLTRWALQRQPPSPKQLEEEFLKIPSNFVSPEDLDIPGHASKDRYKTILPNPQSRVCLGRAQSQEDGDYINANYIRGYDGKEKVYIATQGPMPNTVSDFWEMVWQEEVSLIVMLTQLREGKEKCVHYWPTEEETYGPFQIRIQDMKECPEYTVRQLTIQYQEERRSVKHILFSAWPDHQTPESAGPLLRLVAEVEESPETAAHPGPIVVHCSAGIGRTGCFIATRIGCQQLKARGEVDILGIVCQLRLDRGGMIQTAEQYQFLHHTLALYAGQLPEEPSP

[9] = target: T5, Low molecular weight phosphotyrosine protein phosphatase (Homo sapiens, UniProt P24666); type: functional; settings: read-out: IC50_Mean;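 also: Dose-response confirmation assay measuring inhibition of LMPTP enzyme activity by fluorescence intensity read-out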
T5 sequence (P24666 whole entry): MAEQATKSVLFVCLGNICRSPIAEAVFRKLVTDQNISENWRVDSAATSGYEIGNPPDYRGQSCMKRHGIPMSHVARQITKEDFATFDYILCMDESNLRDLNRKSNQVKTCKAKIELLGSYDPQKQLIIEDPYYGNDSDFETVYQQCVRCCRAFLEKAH

[10] = target: T3, Dual specificity protein phosphatase 3; assay: SAR VHR1 Fluorescent Assay for In Vitro dose response studies. [Related pubchem assays (depositor defined):AID1654, AID1661, AID1878, AID1992, AID2004, AID2070, AID2085]; type: functional
[11] = target: T2, Tyrosine-protein phosphatase non-receptor type 22; assay: SAR LYP1 Fluorescent Assay using OMFP substrate for In Vitro dose response studies - Set 3. [Related pubchem assays (depositor defined):AID1779, AID1784, AID2140, AID2686]; type: functional
[12] = target: DNA (cytosine-5)-methyltransferase 1 (Homo sapiens, UniProt P26358); assay: inhibition of DNA methylation by DNMT1 – biochemical, fluorescent molecular beacon, confirmation (AID 602386); type: functional
Sequence of DNA (cytosine-5)-methyltransferase 1 (P26358 whole entry): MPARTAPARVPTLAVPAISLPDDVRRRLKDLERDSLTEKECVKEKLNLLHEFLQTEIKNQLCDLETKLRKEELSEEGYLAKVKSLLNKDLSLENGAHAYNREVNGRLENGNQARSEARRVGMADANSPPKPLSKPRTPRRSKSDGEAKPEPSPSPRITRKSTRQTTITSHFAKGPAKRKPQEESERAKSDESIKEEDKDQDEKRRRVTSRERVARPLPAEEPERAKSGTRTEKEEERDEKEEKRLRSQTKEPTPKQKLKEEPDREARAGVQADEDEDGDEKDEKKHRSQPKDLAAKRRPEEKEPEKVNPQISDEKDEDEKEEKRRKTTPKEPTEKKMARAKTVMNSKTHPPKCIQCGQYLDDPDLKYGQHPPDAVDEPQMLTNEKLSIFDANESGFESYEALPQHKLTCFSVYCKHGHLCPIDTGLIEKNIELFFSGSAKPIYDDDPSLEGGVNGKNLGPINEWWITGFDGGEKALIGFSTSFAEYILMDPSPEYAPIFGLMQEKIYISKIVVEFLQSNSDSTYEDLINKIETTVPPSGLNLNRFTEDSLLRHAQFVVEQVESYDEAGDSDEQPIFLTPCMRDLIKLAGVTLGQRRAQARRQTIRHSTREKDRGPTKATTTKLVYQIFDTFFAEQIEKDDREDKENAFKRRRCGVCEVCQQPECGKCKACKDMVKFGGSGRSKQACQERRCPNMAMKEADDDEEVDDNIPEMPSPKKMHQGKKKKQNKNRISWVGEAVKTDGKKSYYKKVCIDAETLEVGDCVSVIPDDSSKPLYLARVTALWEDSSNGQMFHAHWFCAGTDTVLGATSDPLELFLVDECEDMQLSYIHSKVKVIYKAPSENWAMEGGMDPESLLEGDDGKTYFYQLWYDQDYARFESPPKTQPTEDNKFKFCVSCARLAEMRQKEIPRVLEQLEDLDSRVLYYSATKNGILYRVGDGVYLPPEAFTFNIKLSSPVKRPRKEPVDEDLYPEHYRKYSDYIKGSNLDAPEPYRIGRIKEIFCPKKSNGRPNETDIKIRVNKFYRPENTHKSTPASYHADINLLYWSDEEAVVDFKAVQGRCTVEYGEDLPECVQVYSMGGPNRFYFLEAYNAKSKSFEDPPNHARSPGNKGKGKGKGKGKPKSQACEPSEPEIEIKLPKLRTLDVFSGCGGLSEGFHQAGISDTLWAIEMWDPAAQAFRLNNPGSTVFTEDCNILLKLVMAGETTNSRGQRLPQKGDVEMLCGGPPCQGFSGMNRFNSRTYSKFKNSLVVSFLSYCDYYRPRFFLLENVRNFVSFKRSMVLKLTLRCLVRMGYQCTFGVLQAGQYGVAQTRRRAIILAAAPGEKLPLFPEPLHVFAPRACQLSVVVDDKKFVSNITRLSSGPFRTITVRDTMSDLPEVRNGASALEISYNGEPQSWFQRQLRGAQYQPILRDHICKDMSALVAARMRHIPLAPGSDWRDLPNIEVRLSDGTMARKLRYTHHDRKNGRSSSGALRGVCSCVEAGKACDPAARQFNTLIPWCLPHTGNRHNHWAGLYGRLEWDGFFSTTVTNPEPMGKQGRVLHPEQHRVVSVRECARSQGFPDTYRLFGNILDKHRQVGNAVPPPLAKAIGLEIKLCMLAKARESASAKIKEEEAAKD

[13] = target: T3, Dual specificity protein phosphatase 3; assay: MOA VHR1 Fluorescent secondary assay for identification of redox-state modulating compounds. [Related pubchem assays (depositor defined):AID1654, AID1661, AID1878, AID1957]
[14] = target: T4, Tyrosine-protein phosphatase non-receptor type 7; assay: redox-active compounds inhibiting HePTP phosphatase – biochemical, fluorescence, mechanism study (AID 2068); type: functional
[15] = target: T3, Dual specificity protein phosphatase 3; assay: inhibition constants for human DUSP3 – biochemical, colorimetric, SAR follow-up (AID 2004)
[16] = target: Signal transducer and activator of transcription 3 (Homo sapiens, UniProt P40763); assay: STAT3 activation with BCL3 mRNA and toxicity – cell-based, […], BCL3 qPCR, cytotoxicity, late-stage follow-up, panel member STAT3 Activation (AID 2049)
Sequence of Signal transducer and activator of transcription 3 (P40763 whole entry): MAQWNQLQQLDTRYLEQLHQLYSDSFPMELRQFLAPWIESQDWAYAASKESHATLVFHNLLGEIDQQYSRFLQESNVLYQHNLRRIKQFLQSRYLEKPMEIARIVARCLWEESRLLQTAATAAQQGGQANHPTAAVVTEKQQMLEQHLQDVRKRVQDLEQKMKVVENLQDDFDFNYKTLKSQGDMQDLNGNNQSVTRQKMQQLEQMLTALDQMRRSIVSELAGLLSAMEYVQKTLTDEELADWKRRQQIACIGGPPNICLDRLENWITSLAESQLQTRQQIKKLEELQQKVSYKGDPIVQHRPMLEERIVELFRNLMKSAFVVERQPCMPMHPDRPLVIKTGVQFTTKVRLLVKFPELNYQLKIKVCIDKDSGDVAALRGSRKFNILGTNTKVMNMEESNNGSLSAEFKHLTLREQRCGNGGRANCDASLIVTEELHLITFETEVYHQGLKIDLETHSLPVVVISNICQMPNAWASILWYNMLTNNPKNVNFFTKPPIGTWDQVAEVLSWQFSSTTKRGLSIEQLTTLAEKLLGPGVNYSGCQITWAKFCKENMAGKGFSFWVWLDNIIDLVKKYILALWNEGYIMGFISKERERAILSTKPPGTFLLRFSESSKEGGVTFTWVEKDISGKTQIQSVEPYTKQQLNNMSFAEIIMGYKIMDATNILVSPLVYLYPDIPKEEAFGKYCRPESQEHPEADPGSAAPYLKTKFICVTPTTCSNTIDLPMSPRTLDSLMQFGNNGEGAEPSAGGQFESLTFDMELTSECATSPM

[17] = target: T6, Rac GTPase-activating protein 1 (Homo sapiens, UniProt Q9H0H5); assay: blockers of MgcRacGAP-driven Rac1 GTP hydrolysis – biochemical, ADP Hunter fluorescence, primary and confirmatory, confirmation (AID 624330); type: functional
T6 sequence (Q9H0H5 whole entry): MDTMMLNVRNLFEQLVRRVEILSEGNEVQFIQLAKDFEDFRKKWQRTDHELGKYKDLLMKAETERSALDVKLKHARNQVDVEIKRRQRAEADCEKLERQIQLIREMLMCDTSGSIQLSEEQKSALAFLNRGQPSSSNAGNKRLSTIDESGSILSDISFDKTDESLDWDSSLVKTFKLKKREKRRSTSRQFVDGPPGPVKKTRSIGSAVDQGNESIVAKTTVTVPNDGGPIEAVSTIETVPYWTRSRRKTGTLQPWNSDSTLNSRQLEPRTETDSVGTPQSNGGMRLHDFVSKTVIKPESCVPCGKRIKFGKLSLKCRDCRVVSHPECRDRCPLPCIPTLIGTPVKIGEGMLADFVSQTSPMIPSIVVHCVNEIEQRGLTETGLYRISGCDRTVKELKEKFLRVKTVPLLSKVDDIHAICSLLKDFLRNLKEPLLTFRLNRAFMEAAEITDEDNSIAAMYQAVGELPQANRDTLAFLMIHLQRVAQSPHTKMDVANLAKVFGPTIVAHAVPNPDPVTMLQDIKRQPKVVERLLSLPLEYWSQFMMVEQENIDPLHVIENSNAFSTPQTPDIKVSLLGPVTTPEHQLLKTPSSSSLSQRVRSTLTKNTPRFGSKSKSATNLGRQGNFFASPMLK

[18] = target: Scavenger receptor class B member 1 (Mus musculus, UniProt Q61009); assay: mouse SR-BI DiI-HDL uptake blockers – ldlA[mSR-BI] cells, fluorescence, cherry pick, dose response (AID 493194); type: functional, cell-based;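 also: cellular uptake of fluorescent DiI-labeled HDL measured as cell fluorescence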
Sequence of Scavenger receptor class B member 1 (Q61009 whole entry): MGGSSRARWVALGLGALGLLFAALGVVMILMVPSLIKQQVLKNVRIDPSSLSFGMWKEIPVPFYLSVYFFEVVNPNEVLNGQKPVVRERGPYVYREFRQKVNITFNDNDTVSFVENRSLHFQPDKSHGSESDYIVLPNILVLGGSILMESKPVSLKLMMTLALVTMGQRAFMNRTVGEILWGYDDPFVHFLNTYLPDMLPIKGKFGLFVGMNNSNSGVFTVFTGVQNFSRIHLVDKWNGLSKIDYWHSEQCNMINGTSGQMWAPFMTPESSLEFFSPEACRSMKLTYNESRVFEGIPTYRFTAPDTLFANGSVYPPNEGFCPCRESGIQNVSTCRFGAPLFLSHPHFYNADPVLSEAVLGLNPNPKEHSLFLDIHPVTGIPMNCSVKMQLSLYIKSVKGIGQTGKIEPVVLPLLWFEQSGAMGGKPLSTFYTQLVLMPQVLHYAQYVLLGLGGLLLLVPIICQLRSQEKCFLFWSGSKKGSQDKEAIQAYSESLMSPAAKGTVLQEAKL

[19] = viability loss in HeLa cells – cytotoxicity control for MgcRacGAP inhibitor project, dose response (AID 624300); type: functional

## O=C(OCc1ccccc1)N(CCCCN(CCCNCc1ccccc1)C(=O)OCc1ccccc1)CCCNCc1ccccc1
[1]
  AC50: 4.16 µM (active)
Paired box protein Pax-8
  AC50: 9.11 µM (active)
[2]
  AC50: 10.3 µM (active)
Beta-galactosidase
  IC50: > 66.6 µM (inactive)
[3]
  AC50: 5.36 µM (active)

## CC1=C(C(=O)OC(C)C)C(c2ccc(Cl)cc2)n2c(sc(=Cc3ccc(OCC(=O)O)cc3)c2=O)=N1 (stereo unspecified)
[4]
  IC50: 41.8 µM (active)
[5]
  IC50: 1.68 µM (active)
[6]
  IC50: 3.63 µM (active)
[7]
  IC50: 0.967 µM (active)
[8]
  IC50: 0.304 µM (active)
[9]
  IC50: 6.66 µM (active)
[10]
  IC50: 12.3 µM (active)
[11]
  IC50: 4.01 µM (active)
[12]
  IC50: 5.43 µM (active)
[13]
  IC50: 1.93 µM (active)
[14]
  IC50: 0.391 µM (active)

## Cc1cc(/C=C2/SC(=S)NC2=O)c(C)n1-c1cccc(Cl)c1
[15]
  Ki: 82 µM (inactive)

## CN(C(=O)c1cc(C2CC2)on1)c1ccccc1
[16]
  EC50: > 55.7 µM (inactive)

## C=C(CN(C)C)C(=O)c1ccc(OC2OC(COC(C)=O)C(OC(C)=O)C(OC(C)=O)C2OC(C)=O)cc1 (stereo unspecified)
[17]
  IC50: 162 µM (active)
[18]
  AC50: 6.87 µM (active)
[19]
  CC50: 100 µM (active)
